Results taken from US9296722B2, “Azolyl urea compounds and methods of use thereof” (Ambit Biosciences Corporation, priority 2010, dated 2016).

What was measured:
[1] = target: kinase panel containing either 359 or 386 distinct kinases; test: Competition binding assay, selectivity score (S10) against a panel of kinases; settings: compounds at 10 μM; fraction of kinases with percent of control less than 10
Procedure: Competition binding assays used herein were developed, validated and performed as described in Fabian et al., Nature Biotechnology 2005, 23, 329-336. Kinases were produced as fusions to T7 phage (See, Fabian et al. or WO04/015142) or alternatively, the kinases were expressed in HEK-293 cells and subsequently tagged with DNA for PCR detection (See, WO08/005,310). […] The liganded beads were blocked with excess biotin and washed with blocking buffer (SeaBlock (Pierce), 1% BSA, 0.05% Tween 20, 1 mM DTT) to remove unbound ligand and to reduce non-specific binding. […] Test compounds were prepared as 100× stocks in DMSO and diluted into the aqueous environment. Kds were determined using an eleven point threefold serial dilutions. DMSO or control compounds were was added to control assays lacking a test compound. Primary screen assays were performed in polypropylene 384-well plates in a final volume of 20-40 μL, while Kd determinations were performed in polystyrene 96-well plates in a final volume of […]. […] The kinase concentration in the eluates was measured by quantitative PCR.
A selectivity score (S10) is a quantitative measure of selectivity of a compound against a panel of kinases. An S10 was calculated for a compound by dividing the number of kinases found to have a percent of control (DMSO) less than 10 by the total number of distinct kinases tested (excluding mutant variants). Percent of control (POC) is calculated by subtracting the signal of the control compound
(POC=0) from the signal of the test compound and dividing the outcome by the signal of DMSO (POC=100) minus the signal of the control compound. For the compounds disclosed herein, S10 scores were obtained by testing the compounds at 10 μM concentration in a kinase panel containing either 359 or 386 distinct kinases.

M-NFS-60 cells = test: M-NFS-60 cell proliferation assay; format: cell-based, mouse; set-up: CSF1R Cell Proliferation (M-NFS-60) IC50 (nM): scale not given here; settings: 72 hours incubation, Alamar Blue, M-CSF-dependent cells; for IC50: Mus musculus, read-out: CSF1R Cell Proliferation (M-NFS-60) IC50
Procedure: In certain embodiments, the compounds disclosed herein are tested in an M-NFS-60 cell proliferation assay to determine their cellular potency against CSF-1R. M-NFS-60s are mouse monocytic cells that depend on the binding of the ligand M-CSF to its receptor, CSF-1R, to proliferate Inhibition of CSF-1R kinase activity will cause reduced growth and/or cell death. This assay assesses the potency of compounds as CSF-1R inhibitors by measuring the reduction of Alamar Blue reagent by viable cells. An exemplary assay is described in the Examples section.
The compounds disclosed herein were tested in an M-NFS-60 cell proliferation assay to determine their cellular potency against CSF1R. M-NFS-60s are mouse monocytic cells that depend on the binding of the ligand M-CSF to its receptor, CSF1R, to proliferate Inhibition of CSF1R kinase activity will cause reduced growth and/or cell death. This assay assesses the potency of compounds as CSF1R inhibitors by measuring the reduction of Alamar Blue reagent by viable cells.
On day one of the experiment, M-NFS-60 cells were maintained in RPMI complete medium (Omega Scientific) plus 10% FBS supplemented with 20 ng/mL of M-CSF (R&D Systems). 96-well TC-treated, flat bottom plates were seeded at 10,000 cell/well at a volume of 100 μL per well. The cells were cultured overnight at 37° C. under 5% CO2.
On day two, compounds were added to the cells at 9 different concentrations, with half-log intervals alongside a control reference compound serving as a positive control. Final DMSO concentration was kept at 0.5% for a final volume of 200 μL. The compounds were allowed to incubate with the cells for 72 hours at 37° C. under 5% CO2.
On day five of the experiment, 40 μl of Alamar Blue reagent was added to each well and allowed to incubate for 3 hours. Alamar Blue fluorescence was read using SoftMax Pro software at 560 nm (excitation) and 590 nm (emission). IC50s were generated as an average of duplicates and represents the concentration of test compound that achieves 50% inhibition of cellular proliferation compared to control.

CSF1R (human) = target: T1, CSF1R (human) (Homo sapiens, UniProt P07333); test: Competition binding assay, CSF1R (human) Kd
T1 construct: made in house; host or cells: T7 phage display or HEK-293 cells (alternatives, not resolved per kinase)
Procedure: The liganded beads were blocked with excess biotin and washed with blocking buffer (SeaBlock (Pierce), 1% BSA, 0.05% Tween 20, 1 mM DTT) to remove unbound ligand and to reduce non-specific binding. […] Test compounds were prepared as 100× stocks in DMSO and diluted into the aqueous environment. Kds were determined using an eleven point threefold serial dilutions. DMSO or control compounds were was added to control assays lacking a test compound. […] The kinase concentration in the eluates was measured by quantitative PCR.

T1 sequence (P07333 20-972): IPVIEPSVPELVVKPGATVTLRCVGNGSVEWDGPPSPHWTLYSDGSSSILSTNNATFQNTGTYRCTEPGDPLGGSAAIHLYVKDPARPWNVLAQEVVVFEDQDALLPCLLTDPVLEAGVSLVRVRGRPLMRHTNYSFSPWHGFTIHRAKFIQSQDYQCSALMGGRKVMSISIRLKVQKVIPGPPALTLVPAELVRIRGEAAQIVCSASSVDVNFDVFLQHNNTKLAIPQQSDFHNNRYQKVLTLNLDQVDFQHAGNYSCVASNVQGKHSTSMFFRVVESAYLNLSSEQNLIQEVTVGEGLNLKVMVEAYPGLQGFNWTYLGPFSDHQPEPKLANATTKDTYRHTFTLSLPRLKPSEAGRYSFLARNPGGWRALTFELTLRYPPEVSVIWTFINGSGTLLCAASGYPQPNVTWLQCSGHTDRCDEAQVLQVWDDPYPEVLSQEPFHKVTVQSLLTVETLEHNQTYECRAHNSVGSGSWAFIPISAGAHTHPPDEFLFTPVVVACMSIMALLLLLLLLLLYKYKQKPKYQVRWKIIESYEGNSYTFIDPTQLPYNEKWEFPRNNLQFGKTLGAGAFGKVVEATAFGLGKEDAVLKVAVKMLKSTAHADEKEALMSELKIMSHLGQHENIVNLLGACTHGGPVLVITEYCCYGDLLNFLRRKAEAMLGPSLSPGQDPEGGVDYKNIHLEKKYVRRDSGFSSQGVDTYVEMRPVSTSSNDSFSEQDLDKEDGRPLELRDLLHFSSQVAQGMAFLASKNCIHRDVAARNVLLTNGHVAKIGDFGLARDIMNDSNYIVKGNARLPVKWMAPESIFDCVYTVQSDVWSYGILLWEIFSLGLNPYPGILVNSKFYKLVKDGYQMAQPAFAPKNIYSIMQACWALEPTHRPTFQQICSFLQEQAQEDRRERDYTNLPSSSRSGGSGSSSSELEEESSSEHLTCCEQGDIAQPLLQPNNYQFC

Kinase Specificity (S10) [1]	Kd (CSF1R (human)) [nM]	SMILES	IC50 (M-NFS-60 cells) [nM]	CSF1R Cell Proliferation (M-NFS-60) IC50 (nM) (M-NFS-60 cells)
B (0.03 < B ≦ 0.05)	< 3	CCN1CC(Oc2ccc(C(=O)Nc3ccc(NC(=O)Nc4cc(C(C)(C)C)on4)cc3)nc2)C1	100 to 250	–
C (C > 0.05)	< 3	CN1C(C)(C)CC(Oc2ccc(C(=O)Nc3ccc(NC(=O)Nc4cc(C(F)(F)F)n(C)n4)cc3)nc2)CC1(C)C	250 to 1000	–
A (A ≦ 0.03)	< 3	CCN1CCC(Oc2ccc(C(=O)Nc3ccc(NC(=O)Nc4cc(C(C)(C)F)no4)cc3)nc2)CC1	–	A/B
C (C > 0.05)	< 3	CN1C(C)(C)CC(Oc2ccc(C(=O)Nc3ccc(NC(=O)Nc4cc(C(C)(C)C)on4)cc3)nn2)CC1(C)C	250 to 1000	–
B (0.03 < B ≦ 0.05)	< 3	Cc1cc(NC(=O)c2ccc(OC3CC(C)(C)N(C)C(C)(C)C3)cn2)ccc1NC(=O)Nc1cc(C(C)(C)C)on1	100 to 250	–
B (0.03 < B ≦ 0.05)	> 10	CCN1C(C)(C)CC(Oc2ccc(C(=O)Nc3ccc(NC(=O)Nc4cc(C(C)(C)C)no4)cc3)nc2)CC1(C)C	≤ 100	–
B (0.03 < B ≦ 0.05)	< 3	CN(C)C(=O)CN1CCC(Oc2ccc(C(=O)Nc3ccc(NC(=O)Nc4cc(C(C)(C)C)on4)cc3)nc2)C1 (stereo not drawn)	≤ 100	–
B (0.03 < B ≦ 0.05)	3 to 10	CCN1CCC(Oc2ccc(C(=O)Nc3ccc(NC(=O)Nc4cc(C(C)(C)C)no4)cc3)nc2)CC1	≤ 100	–
C (C > 0.05)	< 3	CN1C(C)(C)CC(C)(Oc2ccc(C(=O)Nc3ccc(NC(=O)Nc4cc(C(C)(C)C)on4)cc3)nc2)CC1(C)C	≤ 100	–
C (C > 0.05)	< 3	CCN1CCC(Oc2ccc(C(=O)Nc3ccc(NC(=O)Nc4cc(C(C)(C)C(F)(F)F)on4)cc3)nc2)CC1	≤ 100	–
B (0.03 < B ≦ 0.05)	< 3	CN1C(C)(C)CC(Oc2ccc(C(=O)Nc3ccc(NC(=O)Nc4cc(C(C)(CF)CF)on4)cc3)nc2)CC1(C)C	≤ 100	–

SMILES	Kinase Specificity (S10) [1]	Kd (CSF1R (human)) [nM]	IC50 (M-NFS-60 cells) [nM]	CSF1R Cell Proliferation (M-NFS-60) IC50 (nM) (M-NFS-60 cells)
CC(C)(C)c1cc(NC(=O)Nc2ccc(NC(=O)c3ccc(OC4CN5CCC4CC5)cn3)cc2)no1 (stereo not drawn)	C (C > 0.05)	< 3	≤ 100	–
CN1C2CCC1CC(Oc1ccc(C(=O)Nc3ccc(NC(=O)Nc4cc(C(C)(C)C)on4)cc3)nc1)C2 (stereo not drawn)	C (C > 0.05)	< 3	≤ 100	–
